# The supplement of paper PMC10307832
# Columns and labels:
# Assay in all cases: relative viability (nuclei count vs DMSO), 5 days (fraction); higher = more cells survive
# Neratinib + AZD7762 = compound: CCOc1cc2ncc(C#N)c(Nc3ccc(OCc4ccccn4)c(Cl)c3)c2cc1NC(=O)/C=C/CN(C)C [Neratinib] + NC(=O)Nc1cc(-c2cccc(F)c2)sc1C(=O)N[C@H]1CCCNC1 [AZD7762] (partner 0.2 µM)
# Summary of the method: (§1)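 Lung cancer cell lines in 1536-well plates were dosed by pin tool the day after seeding, either with one drug alone or with a fixed anchor-drug dose plus five library-drug doses (not always all listed) in √10 steps. After 5 days, cells were fixed and their nuclei stained in one step (final 0.05% Triton X-100, 1% formaldehyde, 1 ug/ml Hoechst), then counted on 4× images. Relative viability is the nuclei count in treated wells divided by that in vehicle wells. Values are medians of duplicate plates.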
# Neratinib + Bortezomib = compound: CCOc1cc2ncc(C#N)c(Nc3ccc(OCc4ccccn4)c(Cl)c3)c2cc1NC(=O)/C=C/CN(C)C [Neratinib] + CC(C)C[C@H](NC(=O)[C@H](Cc1ccccc1)NC(=O)c1cnccn1)B(O)O [Bortezomib] (partner 0.002 µM)
# Summary of the method: as §1
# Neratinib + Decitabine = compound: CCOc1cc2ncc(C#N)c(Nc3ccc(OCc4ccccn4)c(Cl)c3)c2cc1NC(=O)/C=C/CN(C)C [Neratinib] + Nc1ncn([C@H]2C[C@H](O)[C@@H](CO)O2)c(=O)n1 [Decitabine] (partner 2 µM)
# Summary of the method: as §1
# Neratinib + Lapatinib = compound: CCOc1cc2ncc(C#N)c(Nc3ccc(OCc4ccccn4)c(Cl)c3)c2cc1NC(=O)/C=C/CN(C)C [Neratinib] + CS(=O)(=O)CCNCc1ccc(-c2ccc3ncnc(Nc4ccc(OCc5cccc(F)c5)c(Cl)c4)c3c2)o1 [Lapatinib] (partner 2 µM)
# Summary of the method: as §1
Cell Line,relative viability (Neratinib + AZD7762; first compound 0.01 µM),relative viability (Neratinib + AZD7762; first compound 0.03162 µM),relative viability (Neratinib + AZD7762; first compound 0.1 µM),relative viability (Neratinib + AZD7762; first compound 0.3162 µM),relative viability (Neratinib + AZD7762; first compound 1 µM),relative viability (Neratinib + Bortezomib; first compound 0.01 µM),relative viability (Neratinib + Bortezomib; first compound 0.03162 µM),relative viability (Neratinib + Bortezomib; first compound 0.1 µM),relative viability (Neratinib + Bortezomib; first compound 0.3162 µM),relative viability (Neratinib + Bortezomib; first compound 1 µM),relative viability (Neratinib + Decitabine; first compound 0.01 µM),relative viability (Neratinib + Decitabine; first compound 0.03162 µM),relative viability (Neratinib + Decitabine; first compound 0.3162 µM),relative viability (Neratinib + Decitabine; first compound 1 µM),relative viability (Neratinib + Lapatinib; first compound 0.01 µM),relative viability (Neratinib + Lapatinib; first compound 0.03162 µM),relative viability (Neratinib + Lapatinib; first compound 0.1 µM),relative viability (Neratinib + Lapatinib; first compound 0.3162 µM),relative viability (Neratinib + Lapatinib; first compound 1 µM),relative viability (Neratinib + Decitabine; first compound 0.1 µM)
201T,0.672,0.618,0.447,0.59,0.527,1.08,1.1,1.06,1.12,1.09,0.858,0.857,0.853,0.84,1.07,0.943,0.981,1.08,1.05,
A549,,,,,,,,,,,0.325,0.295,0.264,0.318,1.09,0.968,0.907,,0.558,
A-427,0.811,0.725,0.704,0.729,0.338,1.08,0.996,1.02,0.952,0.918,0.558,0.606,0.521,0.54,1.08,1.12,0.972,1,0.998,0.573
ABC-1,0.955,0.659,0.682,0.779,,0.297,0.348,0.379,0.3,0.312,1.21,1.31,1.07,0.746,1.44,1.15,1.21,1.05,0.629,1.23
BEN,0.745,0.804,0.628,0.571,0.596,0.844,1.02,0.72,0.615,0.635,0.76,0.77,0.636,0.702,0.739,1.12,0.464,0.59,0.565,0.809
CAL-12T,0.616,0.695,0.556,,0.646,0.949,1.01,0.785,0.508,0.335,,,,,0.725,0.702,0.529,0.635,0.295,
COR-L23,,,,,,1.06,1.18,0.888,0.964,0.799,0.456,0.478,0.495,0.473,1.07,1.14,0.781,0.882,0.598,0.499
COR-L 105,,,,,,0.856,0.883,0.429,0.347,0.346,0.674,0.618,,0.349,0.36,0.37,0.331,0.377,0.32,0.402
Calu-6,,,,,,1.1,,0.993,1,0.692,,,,,,1.27,0.967,0.95,0.64,
ChaGo-K-1,0.93,0.879,0.648,0.842,0.788,1.06,1.04,0.873,0.745,0.912,0.517,0.581,0.526,0.534,,,,,,0.517
EKVX,0.726,0.699,0.609,0.441,0.199,1.02,1.18,0.894,0.271,0.184,0.339,0.351,0.197,0.16,0.186,0.212,0.179,0.195,0.189,0.324
EMC-BAC-2,1.19,1.19,1,1.08,0.974,1.25,1.13,0.979,0.99,0.889,1.12,1,0.988,0.929,1.03,0.965,0.826,0.856,0.864,0.942
IA-LM,,,,,,0.952,0.908,0.787,0.891,0.507,,,,,0.708,0.822,0.63,0.914,0.619,
LCLC-103H,0.818,0.812,0.655,0.857,0.68,1.18,1.1,0.905,1.16,1.1,0.772,0.8,0.761,0.7,,,,,,0.585
LK-2,0.358,0.309,0.368,0.145,0.175,,,,,,0.321,0.372,0.225,0.24,1.28,1.2,0.95,0.664,0.578,0.305
NCI-H358,0.533,0.508,0.358,0.257,0.223,,,,,,0.205,0.186,0.129,0.117,0.502,0.47,0.42,0.405,0.237,
NCI-H441,1.12,1.32,0.958,0.987,0.73,0.661,0.381,0.372,0.54,0.265,0.255,0.246,0.209,0.2,,,,,,0.235
NCI-H520,,,,,,0.468,0.788,0.448,0.426,0.31,0.604,0.547,,0.46,1,1,0.858,,0.682,
NCI-H661,,,,,,0.779,0.697,0.675,0.446,0.24,,0.513,0.331,0.337,0.563,0.45,0.431,0.427,0.312,0.38

Cell Line,relative viability (Neratinib + AZD7762; first compound 0.01 µM),relative viability (Neratinib + AZD7762; first compound 0.03162 µM),relative viability (Neratinib + AZD7762; first compound 0.1 µM),relative viability (Neratinib + AZD7762; first compound 0.3162 µM),relative viability (Neratinib + AZD7762; first compound 1 µM),relative viability (Neratinib + Bortezomib; first compound 0.01 µM),relative viability (Neratinib + Bortezomib; first compound 0.03162 µM),relative viability (Neratinib + Bortezomib; first compound 0.1 µM),relative viability (Neratinib + Bortezomib; first compound 0.3162 µM),relative viability (Neratinib + Bortezomib; first compound 1 µM),relative viability (Neratinib + Decitabine; first compound 0.01 µM),relative viability (Neratinib + Decitabine; first compound 0.03162 µM),relative viability (Neratinib + Decitabine; first compound 0.3162 µM),relative viability (Neratinib + Decitabine; first compound 1 µM),relative viability (Neratinib + Lapatinib; first compound 0.01 µM),relative viability (Neratinib + Lapatinib; first compound 0.03162 µM),relative viability (Neratinib + Lapatinib; first compound 0.1 µM),relative viability (Neratinib + Lapatinib; first compound 0.3162 µM),relative viability (Neratinib + Lapatinib; first compound 1 µM),relative viability (Neratinib + Decitabine; first compound 0.1 µM)
NCI-H1299,,,,,,1.03,1,0.965,1.03,1.1,,,,,0.969,0.957,0.938,0.976,1.04,
NCI-H1395,0.419,0.42,0.399,0.388,0.389,,,,,,0.681,0.807,0.769,0.559,1.02,1.54,1.11,1.22,0.784,0.749
NCI-H1563,,,,,,0.812,,0.685,0.752,0.647,,,,,0.921,0.975,0.889,1.57,0.843,
NCI-H1648,0.676,,0.491,0.552,0.444,,,,,,0.505,0.389,0.352,0.366,,,,,,0.384
NCI-H1650,,,,,,0.207,0.201,0.206,0.228,0.197,0.398,0.474,0.472,0.613,,0.66,0.736,0.84,0.742,0.474
NCI-H1703,0.148,0.135,0.164,0.111,0.118,0.335,0.345,0.394,0.233,0.18,,,,,1.05,1.29,0.924,0.79,0.244,
NCI-H1793,0.629,0.503,0.346,0.239,0.13,,,,,,0.521,0.455,0.383,0.266,0.693,0.646,0.576,0.75,0.642,
NCI-H1944,0.584,0.621,0.4,0.505,0.313,,,,,,0.458,0.482,0.389,0.39,1.17,0.845,0.732,0.836,0.705,0.423
NCI-H2009,,,,,,0.998,1.08,0.856,0.825,,0.358,0.396,0.447,0.387,0.939,1.15,0.862,0.834,1.52,0.342
NCI-H2023,,,,,,1.08,1.08,0.802,0.995,0.69,0.245,0.232,0.217,0.376,0.888,0.804,0.758,0.878,0.723,0.206
NCI-H2170,0.816,0.549,0.515,0.177,0.159,,,,,,0.548,0.457,0.213,0.18,0.284,0.278,0.289,0.301,0.255,0.412
NCI-H2228,,,,,,1.16,1.03,1.01,0.765,0.295,,,,,1.03,1.26,1.01,0.924,0.259,
NCI-H2342,0.519,0.499,0.408,0.267,0.379,,,,,,,0.829,0.558,0.649,,,,,,0.743
SK-LU-1,,,,,,1.3,1.5,1.34,1.14,0.504,0.662,0.796,0.579,0.421,0.921,0.904,0.809,0.74,0.507,0.588
SK-MES-1,,,,,,,,,,,0.401,0.403,0.299,0.221,0.512,0.479,0.393,0.435,0.364,0.3
SW 900,0.696,0.753,0.526,0.54,0.409,,,,,,0.438,0.43,0.514,0.469,,,,,,0.427
SW 1573,,,,,,1.07,1.28,0.998,1.08,0.843,0.466,0.628,0.507,0.265,1.27,1.13,1.24,1.15,1.16,0.574
UMC-11,,,,,,0.623,0.964,0.823,0.615,0.729,0.324,0.574,0.414,0.194,1.03,1.11,0.604,0.841,0.745,0.634
